Assay results from patent US7842707B2, “Peptidase inhibitors” (Nuada, LLC, priority 2004, dated 2010).

Target: T1, Porcine dipeptidyl peptidase IV (Sus scrofa, UniProt P22411)
T1 construct: purchased Sigma D-7052
Experiment: Inhibition of dipeptidyl peptidase IV (DPP-IV) activity, Ala-Pro-AFC fluorimetric assay
Assay type: biochemical
Conditions: for IC50: 8 point concentration curves in duplicate, Ala-Pro-AFC 20 μM, Tris-HCl pH 8.0, 37° C.; for inhibition at 0.1 µM: test compound at 100 nM, read-out: Percent Inhibition of DPP-IV at 100 nM; for inhibition at 0.1 µM / inhibition at 1 µM: in duplicate; for inhibition at 1 µM: test compound at 1 uM, read-out: Percent Inhibition of DPP-IV at 1 uM
Description: Porcine dipeptidyl peptidase IV (Sigma, D-7052) is used. Test compound and/or vehicle is pre-incubated with enzyme (70 μU ? /ml) in Tris-HCl pH 8.0 for 15 minutes at 37° C. Ala-Pro-AFC (20 μM) is then added for a further 30 minutes incubation period. The concentration of proteolytic product, AFC, is then read spectrofluorimetrically. 8 point concentration curves in duplicate are used to calculate IC50 values, or percent inhibition is measured in duplicate at two dose levels.

T1 sequence (P22411 whole entry): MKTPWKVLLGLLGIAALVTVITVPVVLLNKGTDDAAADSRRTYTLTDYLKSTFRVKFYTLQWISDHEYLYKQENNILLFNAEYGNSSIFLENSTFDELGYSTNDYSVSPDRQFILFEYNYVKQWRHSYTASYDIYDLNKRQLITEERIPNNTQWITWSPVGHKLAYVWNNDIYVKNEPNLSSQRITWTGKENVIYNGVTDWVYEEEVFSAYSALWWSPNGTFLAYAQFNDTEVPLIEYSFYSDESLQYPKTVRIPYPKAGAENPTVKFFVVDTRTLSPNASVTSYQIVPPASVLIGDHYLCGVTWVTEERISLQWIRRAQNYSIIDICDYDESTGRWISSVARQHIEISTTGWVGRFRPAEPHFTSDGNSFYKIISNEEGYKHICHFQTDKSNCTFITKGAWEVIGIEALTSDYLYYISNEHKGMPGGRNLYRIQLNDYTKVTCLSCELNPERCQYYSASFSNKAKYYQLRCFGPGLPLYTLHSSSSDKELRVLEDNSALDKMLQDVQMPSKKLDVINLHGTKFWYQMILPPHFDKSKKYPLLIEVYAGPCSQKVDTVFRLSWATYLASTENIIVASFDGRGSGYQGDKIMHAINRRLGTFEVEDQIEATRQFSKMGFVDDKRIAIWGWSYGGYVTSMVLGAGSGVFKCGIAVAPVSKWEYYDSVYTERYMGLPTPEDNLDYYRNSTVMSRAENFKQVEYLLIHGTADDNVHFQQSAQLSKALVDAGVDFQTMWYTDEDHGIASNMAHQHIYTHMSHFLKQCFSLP

Row | Structure (SMILES) | IC50 | inhibition at 0.1 µM | inhibition at 1 µM
1 | N#C[C@@H]1CCCN1C(=O)CNC12CC3CC(C1)CC(NS(=O)(=O)c1ccc(F)cc1)(C3)C2 [Example 4, (S)-1-[(3-(4-fluorophenyl)sulfonamido-1-adamantyl)amino]acetyl-2-cyano-pyrrolidine] | 0.046 µM | – | –
2 | N#Cc1ccc(NC23CC4CC(CC(NCC(=O)N5CCC[C@H]5C#N)(C4)C2)C3)nc1 [Example 5, 6-(3-(2-((S)-2-cyanopyrrolidin-1-yl)-2-oxoethylamino)-adamantylamino)nicotinonitrile] | – | 96% | 99%
3 | N#C[C@@H]1CCCN1C(=O)CNC12CC3CC(C1)CC(NC(=O)NS(=O)(=O)c1ccc(F)cc1)(C3)C2 [Example 7, 1-(3-(2-((S)-2-cyanopyrrolidin-1-yl)-2-oxoethylamino)-adamantyl)-3-(4-fluorophenylsulfonyl)urea] | 0.07 µM | – | –

Other lines, results leading:

Row | IC50 | inhibition at 0.1 µM | inhibition at 1 µM | Structure (SMILES)
4 | 0.059 µM | – | – | CS(=O)(=O)NC12CC3CC(CC(NCC(=O)N4CCC[C@H]4C#N)(C3)C1)C2 [Example 1, (S)-1-[(3-methanesulfonamido-1-adamantyl)amino]acetyl-2-cyano-pyrrolidine]
5 | – | 60% | 92% | CCS(=O)(=O)NC12CC3CC(CC(NCC(=O)N4CCC[C@H]4C#N)(C3)C1)C2 [Example 2, (S)-1-[(3-ethanesulfonamido-1-adamantyl)amino]acetyl-2-cyano-pyrrolidine]
6 | – | 68% | 94% | N#C[C@@H]1CCCN1C(=O)CNC12CC3CC(C1)CC(NS(=O)(=O)CC(F)(F)F)(C3)C2 [Example 3, (S)-1-[(3-(2,2,2-trifluoro)-ethanesulfonamido-1-adamantyl)amino]acetyl-2-cyano-pyrrolidine]
7 | 0.061 µM | – | – | CN(C)S(=O)(=O)NC12CC3CC(CC(NCC(=O)N4CCC[C@H]4C#N)(C3)C1)C2 [Example 6, N′-(3-(2-((S)-2-cyanopyrrolidin-1-yl)-2-oxoethylamino)-adamantyl)-N,N-dimethyl-sulfamide]
